Assay results taken from patent US20240002365A1, “PYRIDAZINE AND 1,2,4-TRIAZINE DERIVATIVES AS FGFR KINASE INHIBITORS” (BETA PHARMA, INC., priority 2020, published 2024).
Where “and” joins values, the source holds several entries; their conditions need not be identical. Equal entries are not always repeated. Where two headings read alike, the source gives them in different places.

Experiments:
[1] = Pharmacokinetics assay in male CD-1 mice (plasma, LC-MS/MS, non-compartmental analysis); format: in vivo; settings: for MRT inf: read-out: MRT0-inf; for MRT last: read-out: MRT0-last;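 on Plasma concentration: plasma concentration of test compound at each sampling time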
Method: Pharmacokinetics Assay. A pharmacokinetics assay of Example 1 was performed by WuXi AppTec Inc., 6 Cedarbrook Drive, Cranbury, NJ 08512 USA. This study was conducted in 6 to 8-week-old male CD-1 mice (Hilltop Laboratories). Animals were group housed during acclimation and throughout the study. The animal room environment was controlled according to facility operation (temperature: 20 to 26° C.; relative humidity: 30 to 70%; lighting: 12 hour light/dark cycle). Temperature, relative humidity, and lighting were monitored by PointView Environmental Monitoring System. Animals were fed certified pellet diet (Certified Rodent Diet #5002, LabDiet). The diet lot number and specifications were recorded in study notebook and archived at WuXi AppTec. Water (reverse osmosis) was provided to the animals ad libitum. The animals were fasted overnight and food was returned 4 hours post-dose.
An appropriate amount of Example compound 1 above (N^1-(3,5-Dimethoxyphenyl)-N^2-isopropyl-N^1-(3-(1-methyl-1H-pyrazol-4-yl)cinnolin-6-yl)ethane-1,2-diamine) was accurately weighed and mixed with an appropriate volume of 20% hydroxypropyl-(3-cyclodextrin; 80% H2O (w/v) to give either a clear solution or uniform suspension (PO only). Blood samples of about 30-40 μL were collected from peripheral veins at pre-defined time points. into pre-chilled micro-tubes containing K2EDTA as anti-coagulant and kept on ice until centrifugation. The blood samples were centrifuged at 4° C., 3000g for 15 min within half an hour of collection. Plasma was collected into 96-well plate(s), quickly frozen on dry ice and stored at −70±10° C. until LC-MS/MS analysis. The LC-MS/MS analytical method is described as follows:
The pharmacokinetics of Example Compound 1 were analyzed using the Phoenix WinNonlin software (version 6.3) based on the non-compartmental analysis model and the results are shown below in FIGS. 1 and 2 and in Tables 1 and 2. M7, M8, M9, etc. refer to particular mouse subjects used in the study.

FGFR1 = FGFR1 (Homo sapiens (Human), UniProt P11362); experiment: RBC HotSpot Kinase Assay (33P-ATP filter-binding); format: biochemical; settings: 10 μM ATP
Sequence of FGFR1 (P11362 22-822): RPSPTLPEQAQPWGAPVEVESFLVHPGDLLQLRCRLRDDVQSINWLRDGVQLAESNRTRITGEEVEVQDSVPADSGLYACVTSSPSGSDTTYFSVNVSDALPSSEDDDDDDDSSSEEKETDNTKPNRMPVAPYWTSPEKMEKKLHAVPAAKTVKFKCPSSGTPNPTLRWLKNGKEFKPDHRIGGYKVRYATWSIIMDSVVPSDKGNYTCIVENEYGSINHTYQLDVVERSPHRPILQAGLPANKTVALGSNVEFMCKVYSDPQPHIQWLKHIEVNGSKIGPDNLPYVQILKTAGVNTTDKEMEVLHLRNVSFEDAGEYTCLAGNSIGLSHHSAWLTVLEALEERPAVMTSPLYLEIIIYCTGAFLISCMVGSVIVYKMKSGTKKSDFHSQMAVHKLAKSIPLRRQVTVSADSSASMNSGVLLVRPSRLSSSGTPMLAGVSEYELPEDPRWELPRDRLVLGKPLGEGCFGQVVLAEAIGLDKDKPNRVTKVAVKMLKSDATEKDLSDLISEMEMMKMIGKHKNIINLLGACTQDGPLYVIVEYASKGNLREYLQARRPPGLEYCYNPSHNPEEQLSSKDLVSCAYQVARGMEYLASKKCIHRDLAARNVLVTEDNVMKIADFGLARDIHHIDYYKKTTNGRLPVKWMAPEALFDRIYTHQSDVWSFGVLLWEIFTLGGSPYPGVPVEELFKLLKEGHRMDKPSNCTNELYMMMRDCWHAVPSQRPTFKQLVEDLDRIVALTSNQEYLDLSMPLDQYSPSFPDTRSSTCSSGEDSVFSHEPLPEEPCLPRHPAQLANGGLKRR

FGFR4 = FGFR4 (Homo sapiens (Human), UniProt P22455); experiment: RBC HotSpot Kinase Assay (33P-ATP filter-binding); format: biochemical; settings: 10 μM ATP
Sequence of FGFR4 (P22455 22-802): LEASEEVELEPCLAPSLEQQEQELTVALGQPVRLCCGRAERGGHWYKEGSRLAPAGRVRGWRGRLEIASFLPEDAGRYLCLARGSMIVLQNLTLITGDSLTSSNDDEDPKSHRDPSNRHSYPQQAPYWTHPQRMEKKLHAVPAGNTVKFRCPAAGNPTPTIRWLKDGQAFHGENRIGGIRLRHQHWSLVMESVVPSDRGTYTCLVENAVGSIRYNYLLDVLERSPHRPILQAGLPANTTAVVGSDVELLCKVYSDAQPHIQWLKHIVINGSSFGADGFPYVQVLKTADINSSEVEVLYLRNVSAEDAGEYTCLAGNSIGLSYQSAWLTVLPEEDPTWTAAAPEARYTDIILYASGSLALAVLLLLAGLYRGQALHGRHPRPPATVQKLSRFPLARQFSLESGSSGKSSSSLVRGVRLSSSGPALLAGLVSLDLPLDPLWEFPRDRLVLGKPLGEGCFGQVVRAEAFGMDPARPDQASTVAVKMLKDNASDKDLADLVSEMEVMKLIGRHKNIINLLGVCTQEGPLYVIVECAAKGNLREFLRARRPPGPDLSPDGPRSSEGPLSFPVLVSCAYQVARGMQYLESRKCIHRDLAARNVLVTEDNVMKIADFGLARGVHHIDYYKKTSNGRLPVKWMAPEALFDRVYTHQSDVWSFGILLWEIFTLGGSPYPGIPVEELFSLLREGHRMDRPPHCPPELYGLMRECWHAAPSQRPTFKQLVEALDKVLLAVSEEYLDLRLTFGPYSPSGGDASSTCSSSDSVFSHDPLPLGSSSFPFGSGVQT
Method: (§1) Biochemical Assay. […] The reaction buffer was 20 mM HEPES (pH 7.5), 10 mM MgCl2, 1 mM EGTA, 0.02% Brij35, 0.02 mg/mL BSA, 0.1 mM Na3VO4, 2 mM DTT, 1% DMSO. The required cofactors are added individually to each kinase reaction. […] The substrate was Poly (Glu, Tyr) sodium salt and the concentration was 0.2 mg/mL (Sigma; cat. #P7244) where the Glu:Tyr (4:1) molecular weight was 5,000-20,000. […] Reactions were carried out at 10 μM ATP. The serial dilution was conducted by Integra Viaflo Assist in DMSO. The reaction procedure was conducted as follows: • 1) Prepare substrate in freshly prepared Reaction Buffer. • 2) MnCl2 (2 mM) was added as a co-factor listed as above. • 3) Deliver kinase into the substrate solution and gently mix. • 4) Deliver compounds in 100% DMSO into the kinase reaction mixture by Acoustic technology (Echo550; nanoliter range), incubate for 20 min at RT. • 5) Deliver 33P-ATP (specific activity 10 μCi/μL) into the reaction mixture to initiate the reaction. • 6) Incubate for 2 hours at RT. • 7) Detect radioactivity by the filter-binding method. • 8) Kinase activity data was expressed as the percent remaining kinase activity in the test sample compared to vehicle (DMSO) reactions.

FGFR2 = FGFR2 (Homo sapiens (Human), UniProt P21802); experiment: RBC HotSpot Kinase Assay (33P-ATP filter-binding); format: biochemical; settings: 10 μM ATP
Sequence of FGFR2 (P21802 22-821): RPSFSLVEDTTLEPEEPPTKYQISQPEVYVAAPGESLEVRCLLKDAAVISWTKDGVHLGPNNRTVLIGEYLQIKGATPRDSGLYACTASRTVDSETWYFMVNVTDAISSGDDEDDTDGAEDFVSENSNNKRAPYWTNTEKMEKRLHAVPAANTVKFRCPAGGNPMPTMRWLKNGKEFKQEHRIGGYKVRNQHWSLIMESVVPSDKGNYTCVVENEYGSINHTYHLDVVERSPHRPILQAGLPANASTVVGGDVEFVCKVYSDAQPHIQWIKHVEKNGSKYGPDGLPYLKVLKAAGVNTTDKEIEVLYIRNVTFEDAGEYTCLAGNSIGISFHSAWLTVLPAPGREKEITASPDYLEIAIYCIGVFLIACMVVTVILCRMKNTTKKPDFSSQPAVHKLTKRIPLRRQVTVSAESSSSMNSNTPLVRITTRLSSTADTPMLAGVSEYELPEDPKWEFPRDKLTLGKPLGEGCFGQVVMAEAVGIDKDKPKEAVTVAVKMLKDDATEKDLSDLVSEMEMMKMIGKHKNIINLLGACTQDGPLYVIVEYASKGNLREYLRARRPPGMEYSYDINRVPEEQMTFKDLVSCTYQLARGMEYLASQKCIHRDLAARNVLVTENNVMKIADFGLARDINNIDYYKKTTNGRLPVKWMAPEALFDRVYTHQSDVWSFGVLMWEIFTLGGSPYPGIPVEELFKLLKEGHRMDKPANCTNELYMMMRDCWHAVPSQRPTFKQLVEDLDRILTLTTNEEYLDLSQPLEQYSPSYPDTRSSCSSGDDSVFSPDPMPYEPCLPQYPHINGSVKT
Method: as §1

FGFR3 = FGFR3 (Homo sapiens (Human), UniProt P22607); experiment: RBC HotSpot Kinase Assay (33P-ATP filter-binding); format: biochemical; settings: 10 μM ATP
Sequence of FGFR3 (P22607 23-806): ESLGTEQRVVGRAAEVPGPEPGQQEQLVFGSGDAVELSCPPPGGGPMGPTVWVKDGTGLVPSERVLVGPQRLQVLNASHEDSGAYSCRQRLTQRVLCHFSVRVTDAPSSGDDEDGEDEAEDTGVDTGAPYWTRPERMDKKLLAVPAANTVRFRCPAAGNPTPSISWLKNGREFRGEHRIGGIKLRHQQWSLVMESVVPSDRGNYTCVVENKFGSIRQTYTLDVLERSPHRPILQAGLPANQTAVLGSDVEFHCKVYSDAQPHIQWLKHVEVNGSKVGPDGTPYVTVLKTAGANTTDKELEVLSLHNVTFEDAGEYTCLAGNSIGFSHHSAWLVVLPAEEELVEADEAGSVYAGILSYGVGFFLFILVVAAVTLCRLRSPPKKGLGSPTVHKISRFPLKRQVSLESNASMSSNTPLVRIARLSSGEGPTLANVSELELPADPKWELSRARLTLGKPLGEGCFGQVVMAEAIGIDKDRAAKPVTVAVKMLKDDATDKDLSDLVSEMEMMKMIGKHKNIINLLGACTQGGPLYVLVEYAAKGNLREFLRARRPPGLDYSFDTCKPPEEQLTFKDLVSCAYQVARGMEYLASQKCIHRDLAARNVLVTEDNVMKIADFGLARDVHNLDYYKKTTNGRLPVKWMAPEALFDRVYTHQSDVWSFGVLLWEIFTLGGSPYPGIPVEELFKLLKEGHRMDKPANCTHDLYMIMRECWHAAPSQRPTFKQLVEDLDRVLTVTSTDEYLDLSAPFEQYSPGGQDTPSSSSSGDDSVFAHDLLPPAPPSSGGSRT
Method: as §1

[2] = IV 1.00 mg/kg, mouse, individual mice M7-M9
[3] = PO 10.0 mg/kg, mouse, individual mice M10-M12
[4] = male, CD-1, mouse, plasma, iv, 1 mg/kg, IV 1.00 mg/kg, individual mice M7-M9
[5] = male, CD-1, mouse, plasma, iv, 1 mg/kg, IV 1.00 mg/kg, mean
[6] = male, CD-1, mouse, plasma, po, 10 mg/kg, PO 10.0 mg/kg, mean

## COc1cc(OC)cc(N(CCNC(C)C)c2ccc3nnc(-c4cnn(C)c4)cc3c2)c1 [Example 1, N^1-(3,5-Dimethoxyphenyl)-N^2-isopropyl-N^1-(3-(1-methyl-1H-pyrazol-4-yl)cinnolin-6-yl)ethane-1,2-diamine]
[1]; IV 1.00 mg/kg, mouse, 299 s, individual mice M7-M9
  Plasma concentration: 294 ng/mL and 444 ng/mL
[1]; IV 1.00 mg/kg, mouse, 0.250 h, individual mice M7-M9
  Plasma concentration: 197 ng/mL and 143 ng/mL and 292 ng/mL
[1]; IV 1.00 mg/kg, mouse, 0.500 h, individual mice M7-M9
  Plasma concentration: 80.8 ng/mL and 86.8 ng/mL and 206 ng/mL
[1]; IV 1.00 mg/kg, mouse, 1.00 h, individual mice M7-M9
  Plasma concentration: 58.0 ng/mL and 29.3 ng/mL and 86.4 ng/mL
[1]; IV 1.00 mg/kg, mouse, 2.00 h, individual mice M7-M9
  Plasma concentration: 15.2 ng/mL and 8.83 ng/mL and 17.9 ng/mL
[1]; IV 1.00 mg/kg, mouse, 4.00 h, individual mice M7-M9
  Plasma concentration: 3.17 ng/mL and 3.64 ng/mL
[1]; IV 1.00 mg/kg, mouse, 8.00 h, individual mice M7-M9
  Plasma concentration: 1.73 ng/mL and 1.42 ng/mL
[1]; IV 1.00 mg/kg, mouse, 24.0 h, individual mice M7-M9
  Plasma concentration: 2.21 ng/mL and BQL
[1]; [2]
  AUC0-inf: 197 ng·h/mL and 305 ng·h/mL
  AUC0-last: 188 ng·h/mL and 303 ng·h/mL
  AUCExtra: 1.15% and 4.42% and 0.637%
  AUMCExtra: 10.6% and 26.9% and 6.89%
  C0: 421 ng/mL and 547 ng/mL
  Cl: 84.8 mL/min/kg and 54.7 mL/min/kg
  MRT0-inf: 2.80 h and 4.58 h and 0.866 h
  MRT0-last: 2.53 h and 3.50 h and 0.812 h
  T1/2: 1.34 h and 2.72 h and 0.948 h
  Tlast: 24.0 h (2×) and 8.00 h
  Vdss: 12.2 L/kg and 23.3 L/kg and 2.84 L/kg
[1]; IV 1.00 mg/kg, mouse, mean
  AUCExtra: 2.07%
  AUMCExtra: 14.8%
  Tlast: 18.7 h
[1]; PO 10.0 mg/kg, mouse, 0.167 h, individual mice M10-M12
  Plasma concentration: 43.6 ng/mL and 46.8 ng/mL and 147 ng/mL
[1]; PO 10.0 mg/kg, mouse, 0.500 h, individual mice M10-M12
  Plasma concentration: 71.0 ng/mL and 102 ng/mL and 269 ng/mL
[1]; PO 10.0 mg/kg, mouse, 1.00 h, individual mice M10-M12
  Plasma concentration: 47.6 ng/mL and 51.9 ng/mL and 170 ng/mL
[1]; PO 10.0 mg/kg, mouse, 2.00 h, individual mice M10-M12
  Plasma concentration: 14.1 ng/mL and 29.7 ng/mL and 89.5 ng/mL
[1]; PO 10.0 mg/kg, mouse, 4.00 h, individual mice M10-M12
  Plasma concentration: 12.5 ng/mL and 9.57 ng/mL and 22.8 ng/mL
[1]; PO 10.0 mg/kg, mouse, 6.00 h, individual mice M10-M12
  Plasma concentration: 20.7 ng/mL and 7.02 ng/mL and 4.44 ng/mL
[1]; PO 10.0 mg/kg, mouse, 8.00 h, individual mice M10-M12
  Plasma concentration: 13.2 ng/mL and 4.84 ng/mL and 1.77 ng/mL
[1]; PO 10.0 mg/kg, mouse, 24.0 h, individual mice M10-M12
  Plasma concentration: 7.49 ng/mL and 1.56 ng/mL and BQL
[1]; [3]
  AUC0-inf: 488 ng·h/mL and 235 ng·h/mL and 443 ng·h/mL
  AUC0-last: 333 ng·h/mL and 216 ng·h/mL and 441 ng·h/mL
  AUCExtra: 31.7% and 8.42% and 0.593%
  AUMCExtra: 69.7% and 41.4% and 3.41%
  Cmax: 71.0 ng/mL and 102 ng/mL and 269 ng/mL
  MRT0-inf: 20.3 h and 7.47 h and 1.65 h
  MRT0-last: 9.01 h and 4.78 h and 1.60 h
  T1/2: 14.3 h and 8.81 h and 1.03 h
  Tlast: 24.0 h (2×) and 8.00 h
[1]; PO 10.0 mg/kg, mouse, mean
  AUCExtra: 13.6%
  AUMCExtra: 38.2%
  Tlast: 18.7 h
[1]; male, CD-1, mouse, plasma, iv, 1 mg/kg, IV 1.00 mg/kg, 299 s, individual mice M7-M9
  concentration at 0.083 h: 341 ng/mL
[1]; male, CD-1, mouse, plasma, iv, 1 mg/kg, IV 1.00 mg/kg, 299 s, mean
  concentration at 0.083 h: 360 ng/mL
[1]; male, CD-1, mouse, plasma, iv, 1 mg/kg, IV 1.00 mg/kg, 0.250 h, mean
  concentration at 0.25 h: 211 ng/mL
[1]; male, CD-1, mouse, plasma, iv, 1 mg/kg, IV 1.00 mg/kg, 0.500 h, mean
  concentration at 0.5 h: 125 ng/mL
[1]; male, CD-1, mouse, plasma, iv, 1 mg/kg, IV 1.00 mg/kg, 1.00 h, mean
  concentration at 1 h: 57.9 ng/mL
[1]; male, CD-1, mouse, plasma, iv, 1 mg/kg, IV 1.00 mg/kg, 2.00 h, mean
  concentration at 2 h: 14 ng/mL
[1]; male, CD-1, mouse, plasma, iv, 1 mg/kg, IV 1.00 mg/kg, 4.00 h, individual mice M7-M9
  concentration at 4 h: 3.72 ng/mL
[1]; male, CD-1, mouse, plasma, iv, 1 mg/kg, IV 1.00 mg/kg, 4.00 h, mean
  concentration at 4 h: 3.51 ng/mL
[1]; male, CD-1, mouse, plasma, iv, 1 mg/kg, IV 1.00 mg/kg, 8.00 h, individual mice M7-M9
  concentration at 8 h: 1.65 ng/mL
[1]; male, CD-1, mouse, plasma, iv, 1 mg/kg, IV 1.00 mg/kg, 8.00 h, mean
  concentration at 8 h: 1.6 ng/mL
[1]; male, CD-1, mouse, plasma, iv, 1 mg/kg, IV 1.00 mg/kg, 24.0 h, individual mice M7-M9
  concentration at 24 h: 1.36 ng/mL
[1]; male, CD-1, mouse, plasma, iv, 1 mg/kg, IV 1.00 mg/kg, 24.0 h, mean
  concentration at 24 h: 1.79 ng/mL
[1]; [4]
  AUC(0-t): 226 ng·h/mL
  clearance: 73 mL/min/kg
[1]; male, CD-1, mouse, plasma, iv, 1 mg/kg, IV 1.00 mg/kg, individual mice M7-M9, read-out: AUC0-inf
  AUC0-inf: 228 ng·h/mL
[1]; male, CD-1, mouse, plasma, iv, 1 mg/kg, IV 1.00 mg/kg, individual mice M7-M9, read-out: C0
  C0: 448 ng/mL
[1]; [5]
  AUC(0-t): 239 ng·h/mL
  clearance: 70.8 mL/min/kg
  half-life: 1.67 h
  MRT inf: 2.75 h
  MRT last: 2.28 h
[1]; male, CD-1, mouse, plasma, iv, 1 mg/kg, IV 1.00 mg/kg, mean, read-out: AUC0-inf
  AUC0-inf: 243 ng·h/mL
[1]; male, CD-1, mouse, plasma, iv, 1 mg/kg, IV 1.00 mg/kg, mean, read-out: C0
  C0: 472 ng/mL
[1]; male, CD-1, mouse, plasma, iv, 1 mg/kg, IV 1.00 mg/kg, mean, read-out: Vdss
  Vd: 12.8 L/kg
[1]; male, CD-1, mouse, plasma, po, 10 mg/kg, PO 10.0 mg/kg, 0.167 h, mean
  concentration at 0.167 h: 79.1 ng/mL
[1]; male, CD-1, mouse, plasma, po, 10 mg/kg, PO 10.0 mg/kg, 0.500 h, mean
  concentration at 0.5 h: 147 ng/mL
[1]; male, CD-1, mouse, plasma, po, 10 mg/kg, PO 10.0 mg/kg, 1.00 h, mean
  concentration at 1 h: 89.8 ng/mL
[1]; male, CD-1, mouse, plasma, po, 10 mg/kg, PO 10.0 mg/kg, 2.00 h, mean
  concentration at 2 h: 44.4 ng/mL
[1]; male, CD-1, mouse, plasma, po, 10 mg/kg, PO 10.0 mg/kg, 4.00 h, mean
  concentration at 4 h: 15 ng/mL
[1]; male, CD-1, mouse, plasma, po, 10 mg/kg, PO 10.0 mg/kg, 6.00 h, mean
  concentration at 6 h: 10.7 ng/mL
[1]; male, CD-1, mouse, plasma, po, 10 mg/kg, PO 10.0 mg/kg, 8.00 h, mean
  concentration at 8 h: 6.6 ng/mL
[1]; male, CD-1, mouse, plasma, po, 10 mg/kg, PO 10.0 mg/kg, 24.0 h, mean
  concentration at 24 h: 4.53 ng/mL
[1]; [6]
  AUC(0-t): 330 ng·h/mL
  half-life: 8.05 h
  MRT inf: 9.81 h
  MRT last: 5.13 h
[1]; male, CD-1, mouse, plasma, po, 10 mg/kg, PO 10.0 mg/kg, mean, read-out: AUC0-inf
  AUC0-inf: 389 ng·h/mL
[1]; male, CD-1, mouse, plasma, po, 10 mg/kg, PO 10.0 mg/kg, mean, read-out: Cmax
  Cmax: 147 ng/mL
[1]; male, CD-1, plasma, PO 10.0 mg/kg vs IV 1.00 mg/kg, mouse, calculated from AUC
  bioavailability: 13.8%
[1]; male, CD-1, plasma, PO 10.0 mg/kg, mouse, individual mice M10-M12
  Tmax: 0.5 h
FGFR1
  IC50: 7.3 nM
FGFR4
  IC50: 11 nM
FGFR2
  IC50: 4.3 nM
FGFR3
  IC50: 7.6 nM
